Measured values published in US20240279089A1, “METHOD FOR CONTROLLING THE GROWTH OF MICROORGANISMS” (RED BULL GMBH, priority 2021, published 2024).

What was measured:
microorganisms = experiment: Germ count in process water of pasteurization plants (Plate Count Agar); assay type: cell-based
Description: In order to examine the influence of chlorine dioxide on the microbial quality of process water, the process water of a first pasteurization plant was mixed with the aqueous solution according to the invention containing chlorine dioxide, and the process water of a second pasteurization plant was mixed with a biocide.
(§1) The aqueous solution according to the invention containing chlorine dioxide (prepared with the persulfate-chlorite process) was metered discontinuously into the process water of the first pasteurization plant in an amount so as to keep the redox potential of the process water in the range of 400 to 800 mV. When the redox potential in the process water fell below 400 to 450 mV, the aqueous solution according to the invention containing chlorine dioxide was metered in until a redox potential between 750 and 800 mV was reached.
In contrast, bronopol was added to the process water of the second pasteurization plant on a time-controlled basis (every three days) in such an amount that the concentration of bronopol in the process water was […]. […]
The germ count in 1 ml of sample was determined using “Plate Count Agar” (PCA), with the appropriate amount of process water being applied to PCA plates. One plate at a time was incubated at 37° C., and one plate at a time was incubated at 28° C. The evaluation of the germ count took place after 2 and 5 days, respectively.

[1] = Redox potential of treated process water; assay type: physicochemical
Description: as §1
Concurrently. the redox potential of the pasteurization plant in which chlorine dioxide was metered into the process water was measured at the time of sampling for determining the germ count.
In 5 measurements within the examination period. the redox potential of the process water treated with bronopol always amounted to more than 1000 mV.

In the case of `O=[N+]([O-])C(Br)(CO)CO` [bronopol, reference compound], the “Germ count/ml process water” value (microorganisms; 1 Mar. 2021) was >10000 mL⁻¹, the “Germ count/ml process water” value (microorganisms; 2 Feb. 2021) was 81600 mL⁻¹ and the “Germ count/ml process water” value (microorganisms; 4 Feb. 2021) was >10000 mL⁻¹. The “Germ count/ml process water” value (microorganisms; 4 Jan. 2021) was 3600 mL⁻¹, the “Germ count/ml process water” value (microorganisms; 5 Apr. 2021) was >10000 mL⁻¹ and the “Germ count/ml process water” value (microorganisms; 7 Jan. 2021) was 4200 mL⁻¹. For the same compound, the “Germ count/ml process water” value (microorganisms; 8 Apr. 2021) was >10000 mL⁻¹, the “Germ count/ml process water” value (microorganisms; 8 Feb. 2021) was >10000 mL⁻¹ and the “Germ count/ml process water” value (microorganisms; 11 Feb. 2021) was >10000 mL⁻¹. For the same compound, the “Germ count/ml process water” value (microorganisms; 11 Jan. 2021) was 3400 mL⁻¹, the “Germ count/ml process water” value (microorganisms; 12 Apr. 2021) was >10000 mL⁻¹ and the “Germ count/ml process water” value (microorganisms; 12 Mar. 2021) was >10000 mL⁻¹. For the same compound, the “Germ count/ml process water” value (microorganisms; 14 Jan. 2021) was >10000 mL⁻¹, the “Germ count/ml process water” value (microorganisms; 15 Apr. 2021) was >10000 mL⁻¹ and the “Germ count/ml process water” value (microorganisms; 15 Mar. 2021) was >10000 mL⁻¹. For the same compound, the “Germ count/ml process water” value (microorganisms; 17 Feb. 2021) was 76000 mL⁻¹, the “Germ count/ml process water” value (microorganisms; 18 Feb. 2021) was >10000 mL⁻¹ and the “Germ count/ml process water” value (microorganisms; 18 Jan. 2021) was >10000 mL⁻¹. The “Germ count/ml process water” value (microorganisms; 18 Mar. 2021) was >10000 mL⁻¹, the “Germ count/ml process water” value (microorganisms; 19 Apr. 2021) was >10000 mL⁻¹ and the “Germ count/ml process water” value (microorganisms; 21 Jan. 2021) was 60200 mL⁻¹. The “Germ count/ml process water” value (microorganisms; 22 Feb. 2021) was >10000 mL⁻¹, the “Germ count/ml process water” value (microorganisms; 22 Mar. 2021) was >10000 mL⁻¹ and the “Germ count/ml process water” value (microorganisms; 23 Apr. 2021) was >10000 mL⁻¹. For the same compound, the “Germ count/ml process water” value (microorganisms; 25 Jan. 2021) was >10000 mL⁻¹, the “Germ count/ml process water” value (microorganisms; 25 Mar. 2021) was >10000 mL⁻¹ and the “Germ count/ml process water” value (microorganisms; 26 Apr. 2021) was >10000 mL⁻¹. The “Germ count/ml process water” value (microorganisms; 26 Feb. 2021) was 51000 mL⁻¹, the “Germ count/ml process water” value (microorganisms; 28 Jan. 2021) was 54400 mL⁻¹ and the “Germ count/ml process water” value (microorganisms; 29 Apr. 2021) was >10000 mL⁻¹. The “Germ count/ml process water” value (microorganisms; 29 Mar. 2021) was >10000 mL⁻¹ and the “redox potential of the process water” value ([1]; 5 measurements within the examination period) was “more than 1000 mV”.
In the case of `[O][Cl+][O-]` [chlorine dioxide], the “Germ count/ml process water” value (microorganisms; 1 Mar. 2021) was 940 mL⁻¹, the “Germ count/ml process water” value (microorganisms; 2 Feb. 2021) was 7040 mL⁻¹ and the “Germ count/ml process water” value (microorganisms; 4 Feb. 2021) was 800 mL⁻¹. The “Germ count/ml process water” value (microorganisms; 4 Jan. 2021) was 280 mL⁻¹, the “Germ count/ml process water” value (microorganisms; 5 Apr. 2021) was 160 mL⁻¹ and the “Germ count/ml process water” value (microorganisms; 7 Jan. 2021) was 3840 mL⁻¹. The “Germ count/ml process water” value (microorganisms; 8 Apr. 2021) was 2800 mL⁻¹, the “Germ count/ml process water” value (microorganisms; 8 Feb. 2021) was 80 mL⁻¹ and the “Germ count/ml process water” value (microorganisms; 11 Feb. 2021) was 100 mL⁻¹. For the same compound, the “Germ count/ml process water” value (microorganisms; 11 Jan. 2021) was 3480 mL⁻¹, the “Germ count/ml process water” value (microorganisms; 12 Apr. 2021) was 6560 mL⁻¹ and the “Germ count/ml process water” value (microorganisms; 12 Mar. 2021) was 9200 mL⁻¹. The “Germ count/ml process water” value (microorganisms; 14 Jan. 2021) was 3120 mL⁻¹, the “Germ count/ml process water” value (microorganisms; 15 Apr. 2021) was 700 mL⁻¹ and the “Germ count/ml process water” value (microorganisms; 15 Mar. 2021) was 100 mL⁻¹. For the same compound, the “Germ count/ml process water” value (microorganisms; 17 Feb. 2021) was 200 mL⁻¹, the “Germ count/ml process water” value (microorganisms; 18 Feb. 2021) was 1120 mL⁻¹ and the “Germ count/ml process water” value (microorganisms; 18 Jan. 2021) was 4160 mL⁻¹. The “Germ count/ml process water” value (microorganisms; 18 Mar. 2021) was 60 mL⁻¹, the “Germ count/ml process water” value (microorganisms; 19 Apr. 2021) was 140 mL⁻¹ and the “Germ count/ml process water” value (microorganisms; 21 Jan. 2021) was 2100 mL⁻¹. For the same compound, the “Germ count/ml process water” value (microorganisms; 22 Feb. 2021) was 1740 mL⁻¹, the “Germ count/ml process water” value (microorganisms; 22 Mar. 2021) was 8000 mL⁻¹ and the “Germ count/ml process water” value (microorganisms; 23 Apr. 2021) was 2020 mL⁻¹. For the same compound, the “Germ count/ml process water” value (microorganisms; 25 Jan. 2021) was 4800 mL⁻¹, the “Germ count/ml process water” value (microorganisms; 25 Mar. 2021) was 10000 mL⁻¹ and the “Germ count/ml process water” value (microorganisms; 26 Apr. 2021) was 4500 mL⁻¹. For the same compound, the “Germ count/ml process water” value (microorganisms; 26 Feb. 2021) was 2340 mL⁻¹, the “Germ count/ml process water” value (microorganisms; 28 Jan. 2021) was 500 mL⁻¹ and the “Germ count/ml process water” value (microorganisms; 29 Apr. 2021) was 3700 mL⁻¹. For the same compound, the “Germ count/ml process water” value (microorganisms; 29 Mar. 2021) was 10000 mL⁻¹, the “germ count compared with conventional biocide (in words)” value (microorganisms; redox potential kept at 400 to 800 mV, 4 months) was “lower germ count” and the “Redox potential in process water” value ([1]; 1 Mar. 2021) was 720 mV. The “Redox potential in process water” value ([1]; 2 Feb. 2021) was 710 mV, the “Redox potential in process water” value ([1]; 4 Feb. 2021) was 550 mV and the “Redox potential in process water” value ([1]; 4 Jan. 2021) was 810 mV. For the same compound, the “Redox potential in process water” value ([1]; 5 Apr. 2021) was 770 mV, the “Redox potential in process water” value ([1]; 7 Jan. 2021) was 740 mV and the “Redox potential in process water” value ([1]; 8 Apr. 2021) was 640 mV. The “Redox potential in process water” value ([1]; 8 Feb. 2021) was 800 mV, the “Redox potential in process water” value ([1]; 11 Feb. 2021) was 750 mV and the “Redox potential in process water” value ([1]; 11 Jan. 2021) was 710 mV. For the same compound, the “Redox potential in process water” value ([1]; 12 Apr. 2021) was 450 mV, the “Redox potential in process water” value ([1]; 12 Mar. 2021) was 580 mV and the “Redox potential in process water” value ([1]; 14 Jan. 2021) was 700 mV. For the same compound, the “Redox potential in process water” value ([1]; 15 Apr. 2021) was 800 mV, the “Redox potential in process water” value ([1]; 15 Mar. 2021) was 760 mV and the “Redox potential in process water” value ([1]; 17 Feb. 2021) was 780 mV. The “Redox potential in process water” value ([1]; 18 Feb. 2021) was 740 mV, the “Redox potential in process water” value ([1]; 18 Jan. 2021) was 620 mV and the “Redox potential in process water” value ([1]; 18 Mar. 2021) was 780 mV. For the same compound, the “Redox potential in process water” value ([1]; 19 Apr. 2021) was 780 mV, the “Redox potential in process water” value ([1]; 21 Jan. 2021) was 540 mV and the “Redox potential in process water” value ([1]; 22 Feb. 2021) was 510 mV. The “Redox potential in process water” value ([1]; 22 Mar. 2021) was 660 mV, the “Redox potential in process water” value ([1]; 23 Apr. 2021) was 560 mV and the “Redox potential in process water” value ([1]; 25 Jan. 2021) was 420 mV. The “Redox potential in process water” value ([1]; 25 Mar. 2021) was 490 mV, the “Redox potential in process water” value ([1]; 26 Apr. 2021) was 630 mV and the “Redox potential in process water” value ([1]; 26 Feb. 2021) was 640 mV. The “Redox potential in process water” value ([1]; 28 Jan. 2021) was 790 mV, the “Redox potential in process water” value ([1]; 29 Apr. 2021) was 680 mV and the “Redox potential in process water” value ([1]; 29 Mar. 2021) was 430 mV.
